Key:
[1] = system: Tyrosine-protein kinase ABL1 (Homo sapiens), P00519 [Y253F]; test: Inhibition of ABL1 Y253F mutant (unknown origin) assessed as remaining activity at 1 uM by Kinome scan method relative to control
[2] = molecular target: Calcium/calmodulin-dependent protein kinase type 1D (Homo sapiens) (UniProt Q8IU85); test: Inhibition of CAMK1D (unknown origin) assessed as remaining activity at 1 uM by Kinome scan method relative to control
[3] = molecular target: Death-associated protein kinase 3 (Homo sapiens) (UniProt O43293); test: Inhibition of DAPK3 (unknown origin) assessed as remaining activity at 1 uM by Kinome scan method relative to control
[4] = system: Epidermal growth factor receptor (Homo sapiens), P00533 [L858R]; test: Inhibition of EGFR L858R mutant (unknown origin) assessed as remaining activity at 1 uM by Kinome scan method relative to control
[5] = molecular target: Serine/threonine-protein kinase Nek6 (Homo sapiens) (UniProt Q9HC98); test: Inhibition of NEK6 (unknown origin) assessed as remaining activity at 1 uM by Kinome scan method relative to control
Chain of Serine/threonine-protein kinase Nek6 (Homo sapiens) (Q9HC98 whole entry): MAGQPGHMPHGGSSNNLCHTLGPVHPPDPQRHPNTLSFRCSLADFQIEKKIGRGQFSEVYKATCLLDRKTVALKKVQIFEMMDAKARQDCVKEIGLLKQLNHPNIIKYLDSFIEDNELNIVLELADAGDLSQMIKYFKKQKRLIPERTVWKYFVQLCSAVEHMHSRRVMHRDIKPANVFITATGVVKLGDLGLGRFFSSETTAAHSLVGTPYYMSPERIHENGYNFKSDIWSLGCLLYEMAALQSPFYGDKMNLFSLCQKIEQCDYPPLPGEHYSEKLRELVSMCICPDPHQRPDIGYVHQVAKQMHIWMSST

[6] = molecular target: Serine/threonine-protein kinase SIK3 (Homo sapiens) (UniProt Q9Y2K2); test: Inhibition of QSK (unknown origin) assessed as remaining activity at 1 uM by Kinome scan method relative to control
Chain of Serine/threonine-protein kinase SIK3 (Homo sapiens) (Q9Y2K2 whole entry, looked up): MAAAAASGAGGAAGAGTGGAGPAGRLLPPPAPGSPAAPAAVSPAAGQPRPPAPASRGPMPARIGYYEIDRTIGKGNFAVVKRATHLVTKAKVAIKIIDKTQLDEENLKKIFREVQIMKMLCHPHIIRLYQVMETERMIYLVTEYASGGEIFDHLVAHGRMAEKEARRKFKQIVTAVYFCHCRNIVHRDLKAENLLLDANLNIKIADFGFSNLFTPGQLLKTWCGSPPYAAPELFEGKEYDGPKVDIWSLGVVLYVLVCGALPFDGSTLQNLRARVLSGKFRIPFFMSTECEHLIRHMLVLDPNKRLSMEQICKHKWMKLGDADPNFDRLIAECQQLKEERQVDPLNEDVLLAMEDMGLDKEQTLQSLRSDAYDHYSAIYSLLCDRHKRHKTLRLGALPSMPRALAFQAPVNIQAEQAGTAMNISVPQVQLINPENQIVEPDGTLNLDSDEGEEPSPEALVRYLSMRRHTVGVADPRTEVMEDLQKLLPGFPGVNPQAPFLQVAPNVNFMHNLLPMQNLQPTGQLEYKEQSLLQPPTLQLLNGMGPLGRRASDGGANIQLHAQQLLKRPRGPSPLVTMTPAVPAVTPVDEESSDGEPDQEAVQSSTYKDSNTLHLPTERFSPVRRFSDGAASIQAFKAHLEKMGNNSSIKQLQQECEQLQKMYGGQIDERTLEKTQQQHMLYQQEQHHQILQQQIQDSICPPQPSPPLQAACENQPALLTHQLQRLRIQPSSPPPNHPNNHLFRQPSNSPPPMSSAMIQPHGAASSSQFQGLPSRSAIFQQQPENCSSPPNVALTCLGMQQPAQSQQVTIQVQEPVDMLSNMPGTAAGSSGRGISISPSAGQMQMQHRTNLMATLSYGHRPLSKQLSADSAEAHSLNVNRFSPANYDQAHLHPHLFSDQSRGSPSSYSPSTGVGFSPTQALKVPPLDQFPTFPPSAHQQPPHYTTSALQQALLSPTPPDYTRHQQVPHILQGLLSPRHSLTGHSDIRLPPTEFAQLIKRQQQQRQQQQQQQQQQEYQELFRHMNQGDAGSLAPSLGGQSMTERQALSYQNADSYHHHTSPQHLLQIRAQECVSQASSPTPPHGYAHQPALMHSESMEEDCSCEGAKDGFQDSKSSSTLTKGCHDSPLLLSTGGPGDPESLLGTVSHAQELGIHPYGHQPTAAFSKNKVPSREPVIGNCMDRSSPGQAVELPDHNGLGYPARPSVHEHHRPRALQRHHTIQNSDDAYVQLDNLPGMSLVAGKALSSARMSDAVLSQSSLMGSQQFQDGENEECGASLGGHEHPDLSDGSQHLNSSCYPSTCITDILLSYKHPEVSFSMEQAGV

[7] = system: Proto-oncogene tyrosine-protein kinase receptor Ret (Homo sapiens), P07949 [V804M]; test: Inhibition of RET V804M (unknown origin) assessed as remaining activity at 1 uM by Kinome scan method relative to control
[8] = molecular target: Tyrosine-protein kinase SYK (Homo sapiens) (UniProt P43405); test: Inhibition of SYK (unknown origin) assessed as remaining activity at 1 uM by Kinome scan method relative to control
[9] = molecular target: Angiopoietin-1 receptor (Homo sapiens) (UniProt Q02763); test: Inhibition of TIE2 (unknown origin) assessed as remaining activity at 1 uM by Kinome scan method relative to control
[10] = molecular target: Tyrosine-protein kinase Yes (Homo sapiens) (UniProt P07947); test: Inhibition of YES (unknown origin) assessed as remaining activity at 1 uM by Kinome scan method relative to control
[11] = molecular target: Serine/threonine-protein kinase B-raf (Homo sapiens) (UniProt P15056); test: Inhibition of human BRAF assessed as residual activity at 1 uM using MEK1-K97M as substrate in presence of 33P-ATP by ProQinase assay relative to control
[12] = molecular target: CDK1/Cyclin E (Homo sapiens) (UniProt P06493+P24864); test: Inhibition of human CDK1/Cyclin E1 assessed as residual activity at 1 uM using RBER-CHKtide as substrate in presence of 33P-ATP by ProQinase assay relative to control; assay type: protein-complex assay
Chain of CDK1/Cyclin E (Homo sapiens) (P06493 whole entry, looked up): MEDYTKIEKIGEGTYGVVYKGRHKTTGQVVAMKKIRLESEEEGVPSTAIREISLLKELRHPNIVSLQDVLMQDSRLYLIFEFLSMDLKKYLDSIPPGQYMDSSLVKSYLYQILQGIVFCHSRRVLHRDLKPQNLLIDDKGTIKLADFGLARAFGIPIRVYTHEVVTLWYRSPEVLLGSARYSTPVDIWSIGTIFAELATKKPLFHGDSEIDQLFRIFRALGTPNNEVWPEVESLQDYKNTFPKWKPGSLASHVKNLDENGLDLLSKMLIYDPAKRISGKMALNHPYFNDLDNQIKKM
Chain of CDK1/Cyclin E (Homo sapiens) (P24864 whole entry, looked up): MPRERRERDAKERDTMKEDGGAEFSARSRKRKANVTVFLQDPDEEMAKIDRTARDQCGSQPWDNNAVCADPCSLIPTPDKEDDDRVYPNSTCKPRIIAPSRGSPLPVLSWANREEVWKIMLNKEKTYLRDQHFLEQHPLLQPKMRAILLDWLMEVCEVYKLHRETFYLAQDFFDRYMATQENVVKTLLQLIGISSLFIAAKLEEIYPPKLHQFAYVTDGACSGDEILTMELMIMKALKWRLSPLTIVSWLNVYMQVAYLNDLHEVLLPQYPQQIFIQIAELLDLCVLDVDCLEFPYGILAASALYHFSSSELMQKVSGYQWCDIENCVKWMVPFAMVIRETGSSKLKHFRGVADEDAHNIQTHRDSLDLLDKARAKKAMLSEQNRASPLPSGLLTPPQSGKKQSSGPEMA

[13] = molecular target: Cyclin-dependent kinase 2/cyclin E1 (Homo sapiens) (UniProt P24864+P24941); test: Inhibition of human CDK2/CycE1 assessed as residual activity at 1 uM using RBER-CHKtide as substrate in presence of 33P-ATP by ProQinase assay relative to control; assay type: protein-complex assay
[14] = molecular target: Dual specificity tyrosine-phosphorylation-regulated kinase 3 (Homo sapiens) (UniProt O43781); test: Inhibition of human DYRK3 assessed as residual activity at 1 uM using RBER-IRStide as substrate in presence of 33P-ATP by ProQinase assay relative to control
[15] = system: Leucine-rich repeat serine/threonine-protein kinase 2 (Homo sapiens), Q5S007 [R1441C]; test: Inhibition of human LRRK2 R1441C mutant assessed as residual activity at 1 uM using RBER-CHKtide as substrate in presence of 33P-ATP by ProQinase assay relative to control
[16] = molecular target: Mitogen-activated protein kinase kinase kinase 9 (Homo sapiens) (UniProt P80192); test: Inhibition of human MAP3K9 assessed as residual activity at 1 uM using RBER-GSK3 as substrate in presence of 33P-ATP by ProQinase assay relative to control
Chain of Mitogen-activated protein kinase kinase kinase 9 (Homo sapiens) (P80192 whole entry, looked up): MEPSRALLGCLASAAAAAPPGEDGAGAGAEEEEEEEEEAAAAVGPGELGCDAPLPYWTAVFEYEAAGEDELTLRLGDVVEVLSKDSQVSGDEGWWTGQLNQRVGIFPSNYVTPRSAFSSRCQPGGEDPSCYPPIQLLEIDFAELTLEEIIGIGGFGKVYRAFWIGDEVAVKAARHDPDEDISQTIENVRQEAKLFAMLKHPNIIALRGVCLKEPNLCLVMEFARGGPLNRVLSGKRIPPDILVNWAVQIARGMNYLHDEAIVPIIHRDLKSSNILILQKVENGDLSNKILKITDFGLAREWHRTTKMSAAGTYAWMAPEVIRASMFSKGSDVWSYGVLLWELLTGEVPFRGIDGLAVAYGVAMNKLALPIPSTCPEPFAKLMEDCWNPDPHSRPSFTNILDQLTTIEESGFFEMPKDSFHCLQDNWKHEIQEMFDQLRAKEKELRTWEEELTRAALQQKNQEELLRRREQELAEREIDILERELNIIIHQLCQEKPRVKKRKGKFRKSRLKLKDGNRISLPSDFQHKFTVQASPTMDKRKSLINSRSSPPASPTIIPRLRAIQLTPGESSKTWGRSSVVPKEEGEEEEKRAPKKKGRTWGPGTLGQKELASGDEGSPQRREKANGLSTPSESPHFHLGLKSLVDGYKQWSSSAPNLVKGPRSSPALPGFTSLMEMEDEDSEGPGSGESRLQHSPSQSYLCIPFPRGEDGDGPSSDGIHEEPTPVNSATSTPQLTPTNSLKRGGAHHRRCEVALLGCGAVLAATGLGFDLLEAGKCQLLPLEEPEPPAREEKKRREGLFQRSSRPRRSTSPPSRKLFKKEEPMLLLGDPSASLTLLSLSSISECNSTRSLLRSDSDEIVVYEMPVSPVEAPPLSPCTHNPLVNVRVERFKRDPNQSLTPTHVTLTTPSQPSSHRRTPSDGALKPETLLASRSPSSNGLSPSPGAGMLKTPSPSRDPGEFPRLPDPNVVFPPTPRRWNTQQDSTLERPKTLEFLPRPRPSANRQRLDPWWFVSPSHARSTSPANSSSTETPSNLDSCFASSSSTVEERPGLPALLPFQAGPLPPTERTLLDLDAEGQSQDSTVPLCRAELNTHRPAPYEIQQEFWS

[17] = molecular target: Dual specificity mitogen-activated protein kinase kinase 2 (Homo sapiens) (UniProt P36507); test: Inhibition of human MEK2 assessed as residual activity at 1 uM using RBER-IRStide as substrate in presence of 33P-ATP by ProQinase assay relative to control
[18] = molecular target: Mitogen-activated protein kinase kinase kinase 2 (Homo sapiens) (UniProt Q9Y2U5); test: Inhibition of human MEKK2 assessed as residual activity at 1 uM using casein as substrate in presence of 33P-ATP by ProQinase assay relative to control
[19] = molecular target: MAP kinase-interacting serine/threonine-protein kinase 2 (Homo sapiens) (UniProt Q9HBH9); test: Inhibition of human MKNK2 assessed as residual activity at 1 uM using RB-S6P as substrate in presence of 33P-ATP by ProQinase assay relative to control
[20] = molecular target: Serine/threonine-protein kinase 26 (Homo sapiens) (UniProt Q9P289); test: Inhibition of human MST4 assessed as residual activity at 1 uM using RB-CTF as substrate in presence of 33P-ATP by ProQinase assay relative to control
Chain of Serine/threonine-protein kinase 26 (Homo sapiens) (Q9P289 2-416 limits assumed): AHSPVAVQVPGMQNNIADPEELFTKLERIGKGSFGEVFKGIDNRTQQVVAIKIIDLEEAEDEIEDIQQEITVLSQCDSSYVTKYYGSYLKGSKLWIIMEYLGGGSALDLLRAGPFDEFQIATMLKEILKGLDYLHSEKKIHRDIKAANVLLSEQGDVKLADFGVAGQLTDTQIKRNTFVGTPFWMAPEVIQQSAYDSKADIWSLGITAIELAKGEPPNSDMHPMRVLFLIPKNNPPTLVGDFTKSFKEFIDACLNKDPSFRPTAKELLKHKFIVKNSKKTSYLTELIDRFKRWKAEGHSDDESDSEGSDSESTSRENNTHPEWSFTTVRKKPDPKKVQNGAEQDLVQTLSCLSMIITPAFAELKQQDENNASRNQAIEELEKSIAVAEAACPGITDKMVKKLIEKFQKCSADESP

[21] = molecular target: Mitogen-activated protein kinase kinase kinase 14 (Homo sapiens) (UniProt Q99558); test: Inhibition of human NIK assessed as residual activity at 1 uM using RBER-CHKtide as substrate in presence of 33P-ATP by ProQinase assay relative to control
[22] = molecular target: Mitogen-activated protein kinase 11 (Homo sapiens) (UniProt Q15759); test: Inhibition of human P38beta assessed as residual activity at 1 uM using ATF2 as substrate in presence of 33P-ATP by ProQinase assay relative to control
Chain of Mitogen-activated protein kinase 11 (Homo sapiens) (Q15759 whole entry): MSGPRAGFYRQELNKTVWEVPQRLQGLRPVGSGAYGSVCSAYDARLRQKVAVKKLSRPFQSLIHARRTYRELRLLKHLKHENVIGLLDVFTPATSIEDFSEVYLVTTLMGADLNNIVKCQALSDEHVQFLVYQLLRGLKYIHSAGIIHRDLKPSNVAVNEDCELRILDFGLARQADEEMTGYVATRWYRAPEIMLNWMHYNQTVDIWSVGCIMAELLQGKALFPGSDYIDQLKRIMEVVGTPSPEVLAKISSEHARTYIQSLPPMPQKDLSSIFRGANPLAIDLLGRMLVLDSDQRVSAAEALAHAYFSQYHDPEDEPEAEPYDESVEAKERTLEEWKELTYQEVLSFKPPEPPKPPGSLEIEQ

[23] = molecular target: Serine/threonine-protein kinase PLK3 (Homo sapiens) (UniProt Q9H4B4); test: Inhibition of human PLK3 assessed as residual activity at 1 uM using casein as substrate in presence of 33P-ATP by ProQinase assay relative to control
Chain of Serine/threonine-protein kinase PLK3 (Homo sapiens) (Q9H4B4 whole entry, looked up): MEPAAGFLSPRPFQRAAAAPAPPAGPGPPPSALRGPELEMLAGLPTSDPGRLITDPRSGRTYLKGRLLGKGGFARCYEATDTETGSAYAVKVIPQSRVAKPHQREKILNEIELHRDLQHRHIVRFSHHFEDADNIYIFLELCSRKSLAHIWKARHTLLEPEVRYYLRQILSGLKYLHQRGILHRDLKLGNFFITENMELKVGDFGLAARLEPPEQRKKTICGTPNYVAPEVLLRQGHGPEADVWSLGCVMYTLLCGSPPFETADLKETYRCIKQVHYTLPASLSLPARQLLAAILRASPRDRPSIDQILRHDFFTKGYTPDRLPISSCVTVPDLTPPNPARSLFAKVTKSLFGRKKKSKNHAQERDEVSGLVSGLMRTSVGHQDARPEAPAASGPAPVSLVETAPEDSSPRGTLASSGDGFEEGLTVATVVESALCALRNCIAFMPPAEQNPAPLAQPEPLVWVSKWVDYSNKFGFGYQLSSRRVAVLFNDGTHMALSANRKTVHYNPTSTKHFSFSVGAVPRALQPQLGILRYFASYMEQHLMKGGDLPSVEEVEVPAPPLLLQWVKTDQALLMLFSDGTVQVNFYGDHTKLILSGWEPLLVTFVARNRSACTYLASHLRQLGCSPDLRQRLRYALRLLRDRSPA

[24] = molecular target: Ribosomal protein S6 kinase alpha-6 (Homo sapiens) (UniProt Q9UK32); test: Inhibition of human RPS6KA6 assessed as residual activity at 1 uM using RBER-GSK3(14-27) as substrate in presence of 33P-ATP by ProQinase assay relative to control
[25] = molecular target: Serine/threonine-protein kinase PLK2 (Homo sapiens) (UniProt Q9NYY3); test: Inhibition of human SNK assessed as residual activity at 1 uM using RBER-GSK3(14-27) as substrate in presence of 33P-ATP by ProQinase assay relative to control
[26] = Anti-inflammatory activity against human derived high respond PBMC cells assessed as inhibition in stimulated TNF-alpha cytokine release incubated for 2 hrs in the presence of LPS/SEB/aCD28 by Luminex based sandwich immunoassay; assay type: functional, cell-based
[27] = Anti-inflammatory activity against human derived medium respond PBMC cells assessed as inhibition in stimulated IL-1beta cytokine release incubated for 2 hrs in the presence of LPS/SEB/aCD28 by Luminex based sandwich immunoassay; assay type: functional, cell-based
[28] = Anti-inflammatory activity against human derived medium respond PBMC cells assessed as inhibition in stimulated IL-17A cytokine release incubated for 2 hrs in the presence of LPS/SEB/aCD28 by Luminex based sandwich immunoassay; assay type: functional, cell-based

O=C1c2ccc(Nc3ccc(F)cc3F)cc2CCc2ccc(OC[C@H](O)CO)cc21 [Skepinone-L]
Activity [1]: 90% | Activity [2]: 99% | Activity [3]: 100% | Activity [4]: 93% | Activity [5]: 100% | Activity [6]: 100% | Activity [7]: 95% | Activity [8]: 100% | Activity [9]: 100% | Activity [10]: 97% | Activity [11]: 112% | Activity [12]: 87% | Activity [13]: 85% | Activity [14]: 98% | Activity [15]: 89% | Activity [16]: 90% | Activity [17]: 99% | Activity [18]: 89% | Activity [19]: 96% | Activity [20]: 106% | Activity [21]: 96% | Activity [22]: 3% | Activity [23]: 99% | Activity [24]: 85% | Activity [25]: 103% | IC50 [26]: 50 nM | IC50 [27]: 1590 nM | IC50 [28]: 7.85 µM
